The values below come from patent US6344206B1, “Combination of a retinoid with a polyamine polymer” (L'Oreal, priority 1997, dated 2002).

The nature of the series: Test of stability of all-trans-retinol in ethanol during preservation at 50° C. (residual retinol by HPLC). The series is classed as physicochemical. Conditions: retinol 0.3% w/v in ethanol without stabilizer, 20 days of storage at 50° C., aerobic medium. How it is done: The stability of a retinoid is defined in accordance with the present invention by the percentage of retinoid which remains in its original form after the composition containing the retinoid has been stored for a given period and at a given temperature.
The study conditions are the following:
PEI at 0.25, 0.5 and 1% (by weight/volume) in ethanol;
All-trans-retinol marketed by Fluka at 0.3% (by weight/volume) in ethanol;
Aerobic medium with 55 vol % air and 45 vol % ethanol;
Preservation at 50° C. in an oven;
The level of residual retinol after one month of preservation at 50° C. in an aerobic medium (55% of volume of air) is monitored by HPLC (on a Spherisorb ODS1 C18 column) by elution with an H2O/CH3CO2H/CH3CO2NH4/acetonitrile:
The level of residual retinol after two months of storage at 50° C. in an aerobic medium (55 vol % air) is monitored by HPLC (same conditions as in Test 1).
The level of residual retinol after one month of storage at 50° C. in an aerobic medium (55 vol % air) is monitored by HPLC (same conditions as in Test 1).
From an alcoholic solution of retinol at 0.26%, the level of residual retinol after several days of storage of the formulae at 50° C. in aerobic medium (55 vol % of air) is monitored by HPLC. […]

Structures are written as SMILES.

As for `CC1=C(/C=C/C(C)=C/C=C/C(C)=C/CO)C(C)(C)CCC1` [retinol, All-trans-retinol], the Degradation of retinol is about 99%.
